In patent US20050244486A1, “Topical methadone compositions and methods for using the same” (priority 2004, published 2005):
Several values for one entry are separate records, joined by “and”; a condition that tells them apart may be missing. Identical values can stand only once. Like-named read-outs stand apart in the source and are kept apart here.

Columns and labels:
[1] = Study 1: concentrations of methadone in rat plasma, topical administration versus intravenous injection; type: in vivo
Method: (§1) The test article was administered intravenously (IV) through the tail vein to animals in Group A. The injection was performed slowly. A gauze pad (1×1 cm) Saturated with 0.2 mL of the appropriate test article was applied to the clipped site on the back of the animals in Groups 2 and 3. The gauze pad was secured by occlusive tape. The animal was wrapped in gauze, which was held in place with Zonas porous tape.
(§2) Blood Collection: Blood (0.5 mL) was collected into sodium heparin tubes at the appropriate time points. The samples were centrifuged at approximately 2800 rpm at 2-8 degrees Celsius for approximately 15 minutes. Plasma was collected.

[2] = Study 2: concentrations of methadone in rat plasma, topical administration versus intravenous injection; type: in vivo
Method: as §1, §2

CCC(=O)C(CC(C)N(C)C)(c1ccccc1)c1ccccc1 (stereo not shown) [Methadone, 6-dimethylamino-4,4-diphenyl-3-hepatone]
Concentrations of Methadone in Rat Plasma Samples ([1]; Study 1 Group C: topical dorsal flank, 1 × 1 cm gauze pad with 0.2 mL Test Article 3 (Methadone-DEET Solution 10%), 60 min, individual rats C1-C3): 3.27 ng/mL and 4.16 ng/mL | Concentrations of Methadone in Rat Plasma Samples ([1]; Study 1 Group C: topical dorsal flank, 1 × 1 cm gauze pad with 0.2 mL Test Article 3 (Methadone-DEET Solution 10%), 120 min, individual rats C1-C3): 6.22 ng/mL and 5.97 ng/mL | concentration at 45 min ([1]; rat, in vivo, 0.2 mL of 10% methadone solution, Study 1 Group C: topical dorsal flank, 1 × 1 cm gauze pad with 0.2 mL Test Article 3 (Methadone-DEET Solution 10%), individual rats C1-C3, read-out: Concentrations of Methadone in Rat Plasma Samples): 3.83 ng/mL | concentration at 60 min ([1]; rat, in vivo, 0.2 mL of 10% methadone solution, Study 1 Group C: topical dorsal flank, 1 × 1 cm gauze pad with 0.2 mL Test Article 3 (Methadone-DEET Solution 10%), 60 min, individual rats C1-C3, read-out: Concentrations of Methadone in Rat Plasma Samples): 3.88 ng/mL | concentration at 120 min ([1]; rat, in vivo, 0.2 mL of 10% methadone solution, Study 1 Group C: topical dorsal flank, 1 × 1 cm gauze pad with 0.2 mL Test Article 3 (Methadone-DEET Solution 10%), 120 min, individual rats C1-C3, read-out: Concentrations of Methadone in Rat Plasma Samples): 6.85 ng/mL | concentration at 10 min ([1]; rat, in vivo, 0.2 mL of 23.9% methadone solution, Study 1 Group B: topical dorsal flank, 1 × 1 cm gauze pad with 0.2 mL Test Article 2 (Methadone-Diisopropyl Adipate Solution 23.9%), individual rats B1-B3, read-out: Concentrations of Methadone in Rat Plasma Samples): 3.02 ng/mL | concentration at 20 min ([1]; rat, in vivo, 0.2 mL of 23.9% methadone-diisopropyl adipate solution, Study 1 Group B: topical dorsal flank, 1 × 1 cm gauze pad with 0.2 mL Test Article 2 (Methadone-Diisopropyl Adipate Solution 23.9%), 20 min, individual rats B1-B3, read-out: Concentrations of Methadone in Rat Plasma Samples): 4.14 ng/mL | concentration at 45 min ([1]; rat, in vivo, 0.2 mL of 23.9% methadone-diisopropyl adipate solution, Study 1 Group B: topical dorsal flank, 1 × 1 cm gauze pad with 0.2 mL Test Article 2 (Methadone-Diisopropyl Adipate Solution 23.9%), individual rats B1-B3, read-out: Concentrations of Methadone in Rat Plasma Samples): 11.5 ng/mL | concentration at 60 min ([1]; rat, in vivo, 0.2 mL of 23.9% methadone-diisopropyl adipate solution, Study 1 Group B: topical dorsal flank, 1 × 1 cm gauze pad with 0.2 mL Test Article 2 (Methadone-Diisopropyl Adipate Solution 23.9%), 60 min, individual rats B1-B3, read-out: Concentrations of Methadone in Rat Plasma Samples): 11.3 ng/mL | concentration at 2 min ([1]; rat, in vivo, iv, 0.125 mg/animal, Study 1 Group A: I.V. tail vein, 0.25 mL Test Article 1 (0.5 mg/mL Methadone-Saline Solution), 2 min, individual rats A1-A3, read-out: Concentrations of Methadone in Rat Plasma Samples): 73.5 ng/mL | concentration at 5 min ([1]; rat, in vivo, iv, 0.125 mg/animal, Study 1 Group A: I.V. tail vein, 0.25 mL Test Article 1 (0.5 mg/mL Methadone-Saline Solution), 5 min, individual rats A1-A3, read-out: Concentrations of Methadone in Rat Plasma Samples): 68.7 ng/mL | concentration at 10 min ([1]; rat, in vivo, iv, 0.125 mg/animal, Study 1 Group A: I.V. tail vein, 0.25 mL Test Article 1 (0.5 mg/mL Methadone-Saline Solution), individual rats A1-A3, read-out: Concentrations of Methadone in Rat Plasma Samples): 61.8 ng/mL | concentration at 30 min ([1]; rat, in vivo, iv, 0.125 mg/animal, Study 1 Group A: I.V. tail vein, 0.25 mL Test Article 1 (0.5 mg/mL Methadone-Saline Solution), 30 min, individual rats A1-A3, read-out: Concentrations of Methadone in Rat Plasma Samples): 35.3 ng/mL | concentration at 60 min ([1]; rat, in vivo, iv, 0.125 mg/animal, Study 1 Group A: I.V. tail vein, 0.25 mL Test Article 1 (0.5 mg/mL Methadone-Saline Solution), 60 min, individual rats A1-A3, read-out: Concentrations of Methadone in Rat Plasma Samples): 22.8 ng/mL | Irritation of rat skin by topical application ([2]; Study 2, topical methadone solutions on rat skin): lack of irritation | Concentrations of Methadone in Rat Plasma Samples ([2]; Study 2 Group A: I.V. tail vein, 0.25 mL Test Article 1 (0.5 mg/mL Methadone-Saline Solution), 2 min, individual rats A1-A3): 72.0 ng/mL and 63.1 ng/mL | Concentrations of Methadone in Rat Plasma Samples ([2]; Study 2 Group A: I.V. tail vein, 0.25 mL Test Article 1 (0.5 mg/mL Methadone-Saline Solution), 20 min, individual rats A1-A3): 49.2 ng/mL and 59.5 ng/mL | Concentrations of Methadone in Rat Plasma Samples ([2]; Study 2 Group A: I.V. tail vein, 0.25 mL Test Article 1 (0.5 mg/mL Methadone-Saline Solution), 40 min, individual rats A1-A3): 33.0 ng/mL and 35.2 ng/mL | Concentrations of Methadone in Rat Plasma Samples ([2]; Study 2 Group A: I.V. tail vein, 0.25 mL Test Article 1 (0.5 mg/mL Methadone-Saline Solution), 60 min, individual rats A1-A3): 19.7 ng/mL and 24.0 ng/mL | Concentrations of Methadone in Rat Plasma Samples ([2]; Study 2 Group A: I.V. tail vein, 0.25 mL Test Article 1 (0.5 mg/mL Methadone-Saline Solution), 120 min, individual rats A1-A3): 19.5 ng/mL and 13.1 ng/mL and 9.26 ng/mL | Concentrations of Methadone in Rat Plasma Samples ([2]; Study 2 Group A: I.V. tail vein, 0.25 mL Test Article 1 (0.5 mg/mL Methadone-Saline Solution), 480 min, individual rats A1-A3): 1.83 ng/mL and 1.96 ng/mL | Concentrations of Methadone in Rat Plasma Samples ([2]; Study 2 Group A: I.V. tail vein, 0.25 mL Test Article 1 (0.5 mg/mL Methadone-Saline Solution), 1440 min, individual rats A1-A3): 2.31 ng/mL and 0.923 ng/mL | Concentrations of Methadone in Rat Plasma Samples ([2]; Study 2 Group A: I.V. tail vein, 0.25 mL Test Article 1 (0.5 mg/mL Methadone-Saline Solution), 2160 min, individual rats A1-A3): 0.905 ng/mL and 0.944 ng/mL | Concentrations of Methadone in Rat Plasma Samples ([2]; Study 2 Group B: topical dorsal flank, 1 × 1 cm gauze pad with 0.2 mL Test Article 2 (Methadone-Diisopropyl Adipate Solution 23.9%), 15 min, individual rats B1-B3): 1.49 ng/mL and 1.70 ng/mL | Concentrations of Methadone in Rat Plasma Samples ([2]; Study 2 Group B: topical dorsal flank, 1 × 1 cm gauze pad with 0.2 mL Test Article 2 (Methadone-Diisopropyl Adipate Solution 23.9%), 45 min, individual rats B1-B3): 5.66 ng/mL and 3.96 ng/mL and 17.0 ng/mL
